Here are results for 51 compounds from PubChem BioAssay AID179 (DTP/NCI, 2004).

The test system of this experiment is CEM cells HIV-1 protection, formazan growth assay. Kind of experiment: NCI AIDS Antiviral Assay. The conditions noted are these: for IC50: measured here: growth of uninfected CEM cells. The method, boiled down: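 Steps: treat uninfected and HIV-1-infected human CEM cells at five drug levels; quantify growth by soluble formazan; retest any compound reaching 50% protection; classify actives from the retest.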

Molecules are shown by their SMILES. Active and inactive are the calls of the source.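 How the source made its calls: active means compounds giving half or more protection of infected cells from virus-caused growth loss, again on retest; inactive means the rest.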 Where a SMILES comes first, the peptide text is derived from it. The star is where a group is joined. Myristoyl = CCCCCCCCCCCCCC(=O)*

With `O=C(O)c1cc2c(ncc3c(=O)n(-c4ccccc4)[nH]c32)s1`, the EC50 was greater than 115 µM and the IC50 is greater than 115 µM.

Take `CN(C)C=Nc1ccc2c3c(cccc13)-c1ccccc1-2`: the EC50 was greater than 200 µM and the IC50 is 14.1 µM.

Take `C=C(/C=C/C=C(\CO)CCC=C(C)C)[C@H]1CCC2([C@H](CCCO)/C(=C(/C)C=O)CC[C@]2(C)O)[C@H]1O` (stereo not given in full): the concentration for a half-maximal effect (EC50) is greater than 263 µM and the IC50 is 195 µM.

As for `COC(=O)[C@@]1(C)/C(=N/NS(=O)(=O)c2ccc(C)cc2)CCC[C@@H]1C`, the EC50 was greater than 269 µM and the half-inhibitory concentration (IC50) turned out to be 219 µM.

On to `C/C=C(\CC)C(C#N)O[Si](C)(C)C` (stereo not given), for which the result was inactive.

Take `N#Cc1ccc(/C=C(/C(=O)c2ccccc2)c2ccccc2)cc1`: the EC50 was greater than 17 µM and the IC50 is 9.55 µM.

Consider `COc1ccc(O)c2c1C(=O)CCCC2=O`, for which the outcome was inactive.

Regarding `CC(=O)NNc1nc(C)c(C(/C=C/c2ccc3c(c2)OCO3)=N/NC(=O)c2ccncc2)s1`, the EC50 is greater than 50.1 µM and the IC50 is greater than 50.1 µM.

As to `CCc1c(O)n(Cc2nc3ccccc3[nH]2)c(=S)n(-c2ccccc2)c1=O`, the EC50 was greater than 200 µM and the IC50 is greater than 200 µM.

As for `C=C(C(=O)O)C1CC[C@@]2(C)CCC[C@@](C)(O)C2C1` (stereo not given in full), the EC50 was greater than 200 µM and the IC50 is greater than 200 µM.

On to `CC(=O)NNC(=S)/N=C\c1c(O)[nH]c(=O)[nH]c1=O`, for which the EC50 is greater than 200 µM and the IC50 was greater than 200 µM.

Turning to `COC(=O)Cc1c(C2=Nc3ccccc3C2(O)CC(=O)OC)[nH]c2ccccc12` (stereo not given), the EC50 was greater than 200 µM and the half-maximal inhibitory concentration (IC50) turned out to be 91.2 µM.

As to `CON(C)C(=O)C(Cc1ccccc1)NC(=O)OC(C)(C)C` (stereo not given), the EC50 is greater than 813 µM and the IC50 was found to be 155 µM.

For `Cc1[nH]c2ncnc(N)c2c1Cc1ccccc1`, the EC50 was greater than 200 µM and the IC50 is 2.63 µM.

`COc1cc(OC)c2c(c1)OC(=O)C(C(C)=O)C2` (stereo not given): the EC50 was greater than 200 µM and the IC50 was greater than 200 µM.

For `CC(=O)C(=Cc1ccc(N(C)C)cc1)C(C)=O`, the EC50 was greater than 562 µM and the IC50 turned out to be 112 µM.

Consider `O=C1OC(c2ccccc2)=N/C1=C\c1ccc(Br)cc1`, for which the EC50 was greater than 4.37 µM and the 50% inhibitory concentration (IC50) was greater than 4.37 µM.

Consider `CCc1cc(=O)oc2c3c(cc(OC(C)C)c12)O[C@H](C)[C@@H](C)C3=O`, for which the EC50 is greater than 200 µM and the IC50 is 15.5 µM.

`CCCN(CCC)C(=O)c1c(Cl)c2cccnc2n2c(C)cnc12`: the EC50 was greater than 200 µM and the IC50 stood at 70.8 µM.

On to `CC1CN=C(Nc2cccc(F)c2)S1` (stereo not given), for which the EC50 was 0.191 µM and the 50% inhibitory concentration (IC50) is greater than 200 µM.

With `CC(C)(C)N=C1CC(C)(C)c2ccccc2C(=Nc2ccccc2)S1`, the outcome was inactive.

Regarding `NS(=O)(=O)OCCCCCCCOS(N)(=O)=O`, the EC50 was greater than 871 µM and the half-inhibitory concentration (IC50) amounted to 13.5 µM.

As to `COC(=O)C1C(=O)C(C(=O)OC)C2(C)C(C(=O)OC)C(=O)C(C(=O)OC)C12C` (stereo not given), the EC50 is greater than 89.1 µM and the IC50 was 81.3 µM.

Regarding `CCCCCCCCCCCCCC(=O)NCC(=O)NC(CC(N)=O)C(=O)NC(C)C(=O)NC(C)C(=O)NC(C)C(=O)NC(C)C(=O)NC(CCCCN)C(=O)NC(CCCCN)C(=O)NCC(=O)NC(Cc1ccc(O)cc1)C(N)=O` (stereo not given) (Myristoyl-GNAAAAKKGY-NH2; configuration not given here), the EC50 was greater than 214 µM and the IC50 is greater than 214 µM.

In the case of `CCCCCC[C@H]1CC(=O)C2CCCC[C@@]23CC[C@H](CCl)N13` (stereo not given in full) (tested in a mixture with another compound), the EC50 is greater than 200 µM and the concentration for half-maximal inhibition (IC50) was 105 µM.

Consider `O=C(/C=C/c1cccs1)c1ccc(C(=O)/C=C/c2cccs2)cc1`, for which the EC50 is greater than 200 µM and the half-maximal inhibitory concentration (IC50) is 45.7 µM.

Regarding `C/C(=N\N=C(\N)OB(F)F)c1ccccn1`, the EC50 is greater than 200 µM and the concentration for half-maximal inhibition (IC50) amounted to 141 µM.

Take `Clc1cccc(N2CCN(CCCN3CCc4c([nH]c5ccccc45)C3c3cccnc3)CC2)c1` (stereo not given): the EC50 is greater than 5.37 µM and the concentration for half-maximal inhibition (IC50) was greater than 5.37 µM.

With `O=S(Cc1ccccc1)c1nc2ccccc2nc1-c1cccs1` (stereo not given), the EC50 was greater than 74.1 µM and the IC50 stood at 13.5 µM.

Turning to `C1=NCCNCCNCCN=Cc2ccc(cc2)OCc2cccc(n2)COc2ccc1cc2`, the EC50 was greater than 50.1 µM and the IC50 is greater than 50.1 µM.

As for `CCN(CC)C(=S)SS(=O)(=O)c1ccccc1C(=O)O`, the EC50 was greater than 200 µM and the IC50 is 112 µM.

Take `Cc1ccc(C)c(NC(=O)CC2SC(=Nc3ccccc3Cl)NC2=O)c1` (stereo not given): the EC50 is greater than 67.6 µM and the IC50 was greater than 67.6 µM.

For the compound `O=C(/C=C/c1cccs1)c1ccccc1Cl`, the EC50 was greater than 200 µM and the IC50 amounted to 11.2 µM.

For `c1ccc(C2=Nc3ccccc3C(c3ccccc3)=Nc3ccccc32)cc1`, the EC50 is greater than 72.4 µM and the half-maximal inhibitory concentration (IC50) was greater than 72.4 µM.

As to `CC(=O)O[C@H]1CSC[C@@H](OC(C)=O)C1[N+](=O)[O-]` (stereo not given in full), the EC50 was greater than 692 µM and the half-inhibitory concentration (IC50) was found to be 33.1 µM.

As to `CCOC(=O)C1=CNC(C(=O)OCC)C1c1cccn1-c1ccc(Cl)cc1[N+](=O)[O-]` (stereo not given), the EC50 is greater than 200 µM and the concentration for half-maximal inhibition (IC50) is 26.3 µM.

In the case of `COc1cc(OC)c(C(=O)c2cccs2)cc1N`, the outcome was inactive.

Take `NNC(=O)c1ccccc1SSc1ccccc1C(=O)NN`: the 50% effective concentration (EC50) is 0.537 µM and the IC50 amounted to 3.55 µM.

With `Cc1cn(CC2=NCCCN2)c(=O)[nH]c1=O`, the EC50 is greater than 200 µM and the half-inhibitory concentration (IC50) was greater than 200 µM.

Regarding `CC1(C)O[C@@H]([C@@H](O)[C@H](O)C2SCCCS2)[C@@H](CO)O1`, the EC50 is greater than 200 µM and the IC50 was greater than 200 µM.

As to `c1n[nH]cc1C12C3C4C5C3C1C5C42` (stereo not given), the EC50 was greater than 200 µM and the IC50 worked out at 120 µM.

`[Cu+2].[Cu+2].[Cu+2].[Cu+2].[O-]CCN(CC[OH2+])CC[OH2+].[O-]CCN(CC[OH2+])CC[OH2+].[O-]CCN(CC[OH2+])CC[OH2+].[O-]CCN(CC[OH2+])CC[OH2+]`: the EC50 was greater than 200 µM and the half-inhibitory concentration (IC50) came to 4.79 µM.

In the case of `Cc1c(C)c2ccc(OC(C)C(=O)O)cc2oc1=O` (stereo not given), the result was inactive.

For `O=C(/C=C/c1ccc(Br)cc1)c1ccc(NCc2nc3ccccc3[nH]2)cc1`, the EC50 was greater than 16.6 µM and the IC50 stood at 11.5 µM.

Turning to `CC(Oc1ccc2c(=O)cc(-c3ccccc3)oc2c1)C(=O)O` (stereo not given), the result was inactive.

Take `COC(=O)CSc1[nH]c2nc(C)nc(Nc3ccccc3)c2c1C#N`: the EC50 was greater than 200 µM and the IC50 was greater than 200 µM.

Regarding `CCOC(=O)c1ccc(N2C(=O)c3cccc4cccc(c34)C2=O)c([N+](=O)[O-])c1`, the EC50 was greater than 100 µM and the half-inhibitory concentration (IC50) was 37.2 µM.

For `COC1=C(C2(O)C(=O)N(C)c3ccccc32)C(=O)C(OC)=C(C2(O)C(=O)N(C)c3ccccc32)C1=O` (stereo not given), the EC50 is greater than 53.7 µM.

`N#Cc1nc(C(CO)N(Cc2ccccc2)C(=O)O)oc1N` (stereo not given): the EC50 was greater than 200 µM and the IC50 was greater than 200 µM.

As for `S=C(Nc1ccccn1)Nc1ccccc1Cl`, the EC50 is greater than 200 µM and the half-inhibitory concentration (IC50) was 123 µM.

Take `c1ccc(-c2cc(-c3ccncc3)cc(-c3ccncc3)n2)cc1`: the EC50 was greater than 200 µM and the half-inhibitory concentration (IC50) was greater than 200 µM.

For orientation: EC50 means the concentration giving half of the maximal effect. One may read the IC50 as the concentration needed to halve the response being measured. The low end stands for greater potency in that assay, the high end for weaker potency in that assay.
